What was measured:
[1] = test system: mRNA expressed from the genes (A) to (D) in rat liver; experiment: Behavior of genes (mRNA expression level, oligo-DNA microarray) in rat liver after 28-day oral administration; format: in vivo; conditions: mRNA vs vehicle control group; for Behavior of gene caused by administration of chemical substance, Gene No. 4846 / Behavior of gene caused by administration of chemical substance, Gene No. 2026 / Behavior of gene caused by administration of chemical substance, Gene No. 4218 / Behavior of gene caused by administration of chemical substance, Gene No. 6182 / Behavior of gene caused by administration of chemical substance, Gene No. 5600: gene group (A); for Behavior of gene caused by administration of chemical substance, Gene No. 4846: Unigene No. Rn.144554; for Behavior of gene caused by administration of chemical substance, Gene No. 2026 / Behavior of gene caused by administration of chemical substance, Gene No. 4218: Unigene No. Rn.167075; for Behavior of gene caused by administration of chemical substance, Gene No. 6182: Unigene No. Rn.5834; for Behavior of gene caused by administration of chemical substance, Gene No. 5600: Unigene No. Rn.9836; for Behavior of gene caused by administration of chemical substance, Gene No. 1494 / Behavior of gene caused by administration of chemical substance, Gene No. 2045 / Behavior of gene caused by administration of chemical substance, Gene No. 2203: gene group (B); for Behavior of gene caused by administration of chemical substance, Gene No. 1494: Unigene No. Rn.1430; for Behavior of gene caused by administration of chemical substance, Gene No. 2045: Unigene No. Rn.19329; for Behavior of gene caused by administration of chemical substance, Gene No. 2203: Unigene No. Rn.21240; for Behavior of gene caused by administration of chemical substance, Gene No. 533 / Behavior of gene caused by administration of chemical substance, Gene No. 725 / Behavior of gene caused by administration of chemical substance, Gene No. 1163 / Behavior of gene caused by administration of chemical substance, Gene No. 4973 / Behavior of gene caused by administration of chemical substance, Gene No. 4095 / Behavior of gene caused by administration of chemical substance, Gene No. 1334 / Behavior of gene caused by administration of chemical substance, Gene No. 6620 / Behavior of gene caused by administration of chemical substance, Gene No. 6303 / Behavior of gene caused by administration of chemical substance, Gene No. 5878 / Behavior of gene caused by administration of chemical substance, Gene No. 1131 / Behavior of gene caused by administration of chemical substance, Gene No. 1562 / Behavior of gene caused by administration of chemical substance, Gene No. 1741 / Behavior of gene caused by administration of chemical substance, Gene No. 893 / Behavior of gene caused by administration of chemical substance, Gene No. 6026 / Behavior of gene caused by administration of chemical substance, Gene No. 154 / Behavior of gene caused by administration of chemical substance, Gene No. 1993 / Behavior of gene caused by administration of chemical substance, Gene No. 813 / Behavior of gene caused by administration of chemical substance, Gene No. 2494 / Behavior of gene caused by administration of chemical substance, Gene No. 2546 / Behavior of gene caused by administration of chemical substance, Gene No. 3776 / Behavior of gene caused by administration of chemical substance, Gene No. 3929 / Behavior of gene caused by administration of chemical substance, Gene No. 1119 / Behavior of gene caused by administration of chemical substance, Gene No. 6742 / Behavior of gene caused by administration of chemical substance, Gene No. 5634: gene group (C); for Behavior of gene caused by administration of chemical substance, Gene No. 533: Unigene No. Rn.106184; for Behavior of gene caused by administration of chemical substance, Gene No. 725: Unigene No. Rn.108075; for Behavior of gene caused by administration of chemical substance, Gene No. 1163: Unigene No. Rn.11766; for Behavior of gene caused by administration of chemical substance, Gene No. 4973: Unigene No. Rn.118529; for Behavior of gene caused by administration of chemical substance, Gene No. 4095: Unigene No. Rn.119024; for Behavior of gene caused by administration of chemical substance, Gene No. 1334 / Behavior of gene caused by administration of chemical substance, Gene No. 6620: Unigene No. Rn.120914; for Behavior of gene caused by administration of chemical substance, Gene No. 6303: Unigene No. Rn.123063; for Behavior of gene caused by administration of chemical substance, Gene No. 5878: Unigene No. Rn.143213; for Behavior of gene caused by administration of chemical substance, Gene No. 1131: Unigene No. Rn.144946; for Behavior of gene caused by administration of chemical substance, Gene No. 1562: Unigene No. Rn.14744; for Behavior of gene caused by administration of chemical substance, Gene No. 1741: Unigene No. Rn.1647; for Behavior of gene caused by administration of chemical substance, Gene No. 893: Unigene No. Rn.164817; for Behavior of gene caused by administration of chemical substance, Gene No. 6026: Unigene No. Rn.167685; for Behavior of gene caused by administration of chemical substance, Gene No. 154: Unigene No. Rn.185941; for Behavior of gene caused by administration of chemical substance, Gene No. 1993: Unigene No. Rn.18728; for Behavior of gene caused by administration of chemical substance, Gene No. 813: Unigene No. Rn.201760; for Behavior of gene caused by administration of chemical substance, Gene No. 2494: Unigene No. Rn.23969; for Behavior of gene caused by administration of chemical substance, Gene No. 2546: Unigene No. Rn.24561; for Behavior of gene caused by administration of chemical substance, Gene No. 3776: Unigene No. Rn.43232; for Behavior of gene caused by administration of chemical substance, Gene No. 3929: Unigene No. Rn.4620; for Behavior of gene caused by administration of chemical substance, Gene No. 1119: Unigene No. Rn.9757; for Behavior of gene caused by administration of chemical substance, Gene No. 6742: Unigene No. Rn.9779; for Behavior of gene caused by administration of chemical substance, Gene No. 5634: Unigene No. Rn.9862; for Behavior of gene caused by administration of chemical substance, Gene No. 5726: gene group (D), Unigene No. Rn.9939
Summary of the method: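 Groups of four male F344 SPF rats aged 5 weeks are gavaged once a day for 28 days with test chemical in solvent or with solvent alone at equal volume. Total RNA comes from liver taken on day 28. Fold change of 1.5 or 1/1.5 versus control, directionally consistent, defines significance.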

liver = conditions: in vivo; cited from earlier work
rodent = conditions: in vivo; cited from earlier work

SMILES	Behavior of gene caused by administration of chemical substance, Gene No. 4846 [1]	Behavior of gene caused by administration of chemical substance, Gene No. 2026 [1]	Behavior of gene caused by administration of chemical substance, Gene No. 4218 [1]	Behavior of gene caused by administration of chemical substance, Gene No. 6182 [1]	Behavior of gene caused by administration of chemical substance, Gene No. 5600 [1]	Behavior of gene caused by administration of chemical substance, Gene No. 1494 [1]	Behavior of gene caused by administration of chemical substance, Gene No. 2045 [1]	Behavior of gene caused by administration of chemical substance, Gene No. 2203 [1]	Behavior of gene caused by administration of chemical substance, Gene No. 533 [1]	Behavior of gene caused by administration of chemical substance, Gene No. 725 [1]	Behavior of gene caused by administration of chemical substance, Gene No. 1163 [1]	Behavior of gene caused by administration of chemical substance, Gene No. 4973 [1]	Behavior of gene caused by administration of chemical substance, Gene No. 4095 [1]	Behavior of gene caused by administration of chemical substance, Gene No. 1334 [1]	Behavior of gene caused by administration of chemical substance, Gene No. 6620 [1]	Behavior of gene caused by administration of chemical substance, Gene No. 6303 [1]	Behavior of gene caused by administration of chemical substance, Gene No. 5878 [1]	Behavior of gene caused by administration of chemical substance, Gene No. 1131 [1]	Behavior of gene caused by administration of chemical substance, Gene No. 1562 [1]	Behavior of gene caused by administration of chemical substance, Gene No. 1741 [1]	also measured
Cc1cccc(N=Nc2ccc(N(C)C)cc2)c1 [TS076, 3′-Methyl-4-dimethylaminoazobenzene]	+	+	+	+	+	+	+	−	+	+	−	+	+	−	−	+	−	−	+	+	Behavior of gene caused by administration of chemical substance, Gene No. 893 [1]: −; Behavior of gene caused by administration of chemical substance, Gene No. 6026 [1]: −; Behavior of gene caused by administration of chemical substance, Gene No. 154 [1]: +; Behavior of gene caused by administration of chemical substance, Gene No. 1993 [1]: +; Behavior of gene caused by administration of chemical substance, Gene No. 813 [1]: −; Behavior of gene caused by administration of chemical substance, Gene No. 2494 [1]: −; Behavior of gene caused by administration of chemical substance, Gene No. 2546 [1]: −; Behavior of gene caused by administration of chemical substance, Gene No. 3776 [1]: −; Behavior of gene caused by administration of chemical substance, Gene No. 3929 [1]: −; Behavior of gene caused by administration of chemical substance, Gene No. 1119 [1]: −; Behavior of gene caused by administration of chemical substance, Gene No. 6742 [1]: −; Behavior of gene caused by administration of chemical substance, Gene No. 5634 [1]: −; Behavior of gene caused by administration of chemical substance, Gene No. 5726 [1]: −; Liver carcinogenicity (liver): Cr+; Carcinogenicity (rodent): C+
CN(C)c1ccc(N=Nc2ccccc2)cc1 [TS077, 4-Dimethylaminoazobenzene]	−	−	−	+	−	+	+	−	−	−	−	−	−	−	−	+	−	−	−	−	Behavior of gene caused by administration of chemical substance, Gene No. 893 [1]: −; Behavior of gene caused by administration of chemical substance, Gene No. 6026 [1]: +; Behavior of gene caused by administration of chemical substance, Gene No. 154 [1]: −; Behavior of gene caused by administration of chemical substance, Gene No. 1993 [1]: −; Behavior of gene caused by administration of chemical substance, Gene No. 813 [1]: −; Behavior of gene caused by administration of chemical substance, Gene No. 2494 [1]: −; Behavior of gene caused by administration of chemical substance, Gene No. 2546 [1]: −; Behavior of gene caused by administration of chemical substance, Gene No. 3776 [1]: −; Behavior of gene caused by administration of chemical substance, Gene No. 3929 [1]: −; Behavior of gene caused by administration of chemical substance, Gene No. 1119 [1]: −; Behavior of gene caused by administration of chemical substance, Gene No. 6742 [1]: −; Behavior of gene caused by administration of chemical substance, Gene No. 5634 [1]: −; Behavior of gene caused by administration of chemical substance, Gene No. 5726 [1]: +; Liver carcinogenicity (liver): Cr+; Carcinogenicity (rodent): C+
